The results in this text go back to patent publication US10858305B2, “Perillyl alcohol-3-bromopyruvate conjugate and methods of treating cancer” (NeOnc Technologies, Inc., priority 2016, dated 2020).

Entries after “also recorded” stand apart in the source; their conditions may differ. Read-outs that look alike come from different tables or passages of the source.

Test [1] relates to HCT116 colon cancer cells. As to the kind of experiment: Cellular ATP content assay. Format: cell-based, human. The conditions noted are these: HCT116; 3 hours (FIG. 9) or 3 and 6 hours at 40 μM (FIG. 22). As to the method: HCT116 cells were treated with 40 μM 3-BP or NEO218. As a point of reference, cells were also exposed to 100 nM rotenone in glucose-free medium. ATP levels were determined after 3 and 6 hours. ATP levels in untreated cells were set at 100% (corresponding to 26.6 nmol per one million cells).
HCT116 colon cancer cells were treated cells with: NEO218, 3-BP; rotenone (a mitochondrial poison that blocks the respiratory chain); medium without glucose (“no gluc”; in order to shut down glycolysis); and, rotenone in combination with absent glucose (to cease all intracellular ATP production). After 3 hours of treatment, a commercially available ATP detection assay kit was employed to determine the relative levels of ATP present.
ATP content of cells was measured with the ATP Colorimetric/Fluorometric Assay kit (Biovision Inc., Milpitas, Calif.), which utilizes the phosphorylation of glycerol to generate a product that is quantified by colorimetry at 570 nm. Approximately 1×10^6 cells were cultured in 10-cm tissue culture plates, exposed to drug treatment for various time periods, and then processed as per manufacturer's instructions. All ATP levels were normalized to untreated controls and presented as percentage of controls.

The test system of test [2] is HCT116, LN229, T98G, U251, MCF7, T47D, MDA-MB-231, MDA-MB-468, BTM-12, ME16C cells. In words: 24-hour MTT assay in 10 cell lines with MCT-1 levels (FIGS. 16A-16C). Format: cell-based. The conditions noted are these: Homo sapiens, read-out: IC50 (concentration of drug that kills 50% of the cell population). The text has this: The following established human cell lines were used: (A) HCT116 colon carcinoma; (B) LN229, T98G, and U251 glioblastoma; (C) MCF7, MDA-MB-231, MDA-MB-468, BTM-12, and T47D breast carcinoma; and ME16C normal mammary gland epithelium cells (immortalized with telomerase). […] Bars with error bars represent ≥3 measurements, whereas graphs without error bars show the average of two independent measurements. The middle panels show MCT-1 protein levels for each cell line, as determined by Western blot with actin as the loading control.
(§1) Methylthiazoletetrazolium (MTT) assays were performed as described earlier.
Because it was reported that the cytotoxic effects of 3-BP in vitro depend on the presence of MCT-1, we began our study by characterizing MCT-1 expression levels along with cytotoxicity of 3-BP in the various tumor cell lines to be used in our study. We included one colon carcinoma cell line (HCT116), three glioblastoma cell lines (LN229, T98G, U251), four breast cancer cell lines (MCF7, T47D, MDA-MB-231, MDA-MB-468), one culture of primary breast cancer cells (BTM-12), and an established line of normal breast epithelial cells (ME16C). For all 10 cell lines, we established IC50 (concentration of drug that kills 50% of the cell population) by MTT assay, along with MCT-1 protein levels by Western blot analysis. As summarized in FIGS. 16A-16C, MCT-1 levels varied greatly in the different cells, and so did their IC50 values.
In general terms: Formazan colour is commonly taken as a measure of viable cells.

The test system of test [3] is HCT116 cells transfected with MCT-1 siRNA or scrambled control. In words: MTT assay in HCT116 cells after siRNA knockdown of MCT-1. Format: cell-based. The following applies: Homo sapiens. The protocol:
HCT116 cells were transfected with siRNA targeted at MCT-1 (circles), or with a scrambled control (diamonds). (A) Cellular sensitivity to 3-BP and NEO218 was determined by MTT assay. Dotted lines and arrow show the shift in IC50. Note pronounced shift to the right in 3-BP-treated cells (left, panel), compared to a minor shift to the left in NEO218-treated cells (right panel). (B) Knockdown of MCT-1 protein levels was confirmed by Western blot analysis with actin as the loading control. (C) MCT-1 knockdown was also confirmed at the individual cell level by immunocytochemistry. The two photos were similarly overexposed in order to emphasize the pronounced difference in MCT-1 levels.
as §1
All siRNAs were purchased from Qiagen, Valencia, Calif. To knock down MCT1 expression, we used siRNA Hs_SLC16A1_6 (target sequence: 5′-[…]-3′). As a non-silencing control, we used AllStars Negative Control siRNA, which lacks homology to any known mammalian gene. One hundred thousand cells per well of a 6-well plate were transfected with 50 nM siRNA using jetPRIME transfection reagent and buffer (Polyplus Transfection, New York, N.Y.). Medium was changed after 24 hours and cells were subjected to experiments 72 hours after transfection. 2.10. Immunoblots

For test [4], the system named is HCT116 3-BP survivors (MCT-1-negative) and parental cells. In words: Selection of 3-BP survivors from HCT116 cells and MTT chemosensitivity. Format: cell-based, human. The protocol: (A) Immunostaining of HCT116 cells in the absence of any drug treatment (parental cells; left panel) and after 2-week recovery from highly toxic 48-hour treatment with 40 μM 3-BP (3-BP survivors; right panel). Arrows point to a few apparently MCT-1-negative cells among the otherwise MCT-1-positive parental population. Note preferential staining of the cell membrane in the positive cells, consistent with the known transmembrane location of MCT-1; no such staining could be detected in the 3-BP survivors. (B) Western blot analysis of MCT-1 expression levels two weeks after 48-hour treatment of cells with increasing concentrations of 3-BP. […] GAPDH was used as a loading control. (C) Chemosensitivity of 3-BP survivors were compared to parental cells in MTT assays. Both populations were treated with increasing concentrations of 3-BP or NEO218. Survival of untreated cells was set at 100% (n≥3±SE).
Upon closer inspection of individual cells by immunohistochemistry, we detected a small number of apparently MCT-1-negative cells among the otherwise mostly MCT-1-positive population (FIG. 20A). This aspect was investigated further by treating HCT116 cells with 40 μM, representing a concentration that reduces apparent viability by 75% in MTT assays (FIG. 17A) and blocks colony formation by 99% in CFAs. […] These cells, which we called 3-BP survivors, were further analyzed. Intriguingly, no MCT-1 expression could be detected in these cells, neither by immunohistochemistry (FIG. 20A) nor by Western blot (FIG. 20B). […] Intriguingly, NEO218 had no such effect.

As to `O=C(O)C(=O)CBr` [3-BP, 3-bromopyruvate], in test [1], the “depletion of cellular ATP pools” value is recorded as “nearly identical outcomes; also recorded: potently depletes the levels of cellular ATP pools”. Moreover, the IC50 was 15 to 60 µM in test [2] (24 h, cells with high MCT-1 levels (HCT116, U251, ME16C, MDA-MB-468), 24 hours); 150 to 300 µM in test [2] (24 h, cells with lesser MCT-1 levels, 24 hours); 67 µM in test [3] (HCT-116, read-out: IC50 (MTT), HCT116, MCT-1 siRNA knockdown); 20 µM in test [3] (HCT-116, read-out: IC50 (MTT), HCT116, scrambled control siRNA); over 100 µM in test [4] (Homo sapiens, HCT-116, read-out: IC50 (MTT)).

In the case of `C=C(C)[C@@H]1CC=C(COC(=O)C(=O)CBr)CC1` [NEO218, 3-bromo-2-oxo-propionic acid 4-isopropenyl-cyclohex-1-enylmethyl ester], in test [1], the “depletion of cellular ATP pools” value is listed as “nearly identical outcomes; also recorded: potently depletes the levels of cellular ATP pools”. Besides, the IC50 is 15 to 25 µM in test [2] (all 10 cell lines, irrespective of MCT-1 expression); 15 µM in test [3] (HCT-116, HCT116, MCT-1 siRNA knockdown, read-out: IC50 (MTT)); 19 µM in test [3] (HCT-116, HCT116, scrambled control siRNA, read-out: IC50 (MTT)). Moreover, the “sensitivity of 3-BP survivors” value in test [4] (3-BP survivors of HCT116, MTT) was “retained their high sensitivity toward NEO218”. For the same molecule, the “surviving cells after treatment” value in test [4] (parental HCT116, 40 μM) was “did not leave any surviving cells”.
